Patent publication US20110190126A1, “WEED CONTROL METHOD AND HERBICIDAL COMPOSITION” (SYNGENTA CROP PROTECTION, INC., priority 2008, published 2011)

System: sugarcane
Experiment: Field trials in 1.5 year plant cane: phytotoxicity (% damage) to sugarcane
Assay type: in vivo
Details: 200 g/ha
Method: Five field trials are carried out in 1.5 year plant cane to examine the effect on sugarcane of combinations of compound of Formula I with various PS-II inhibiting herbicides. Plot sizes are 20 m^2 and results shown are the average of 3 replicate treatments.

`COCCOCc1nc(C(F)(F)F)ccc1C(=O)C1=C(O)C2CCC(C2)C1=O` (stereo not shown) [Formula I] was tested, and the “% Damage (Average of three trials).” value was 8%.
